According to publication PMC6271477, “Effects of Single Amino Acid Substitution on the Biophysical Properties and Biological Activities of an Amphipathic α-Helical Antibacterial Peptide Against Gram-Negative Bacteria” (Molecules, 2014):

Experiments:
[1] = Tryptophan fluorescence, binding to lipid vesicles; conditions: for Tryptophan fluorescence emission maximum: excitation 280 nm
Procedure: Upon peptide diffusion into the cytoplasmic membrane, evidence of selective interaction between peptides with bacterial versus mammalian cytoplasmic membrane was illustrated by the binding events of the peptides to anionic or zwitterionic lipid vesicles. […] Lipid/peptide (L/P) ratios were maintained high enough at low peptide concentration (2 μM) in order to mimic the initial steps of peptide-membrane binding. The spectra were recorded as shown in Supplementary Figure S1. […] The significant blue shifts of Δλmax (17 to 23 nm) for all peptides upon exposure to PC/PG vesicles indicated a membrane partition state of Trp in negatively charged vesicles containing 30% anionic lipids (PG).
Unilamellar vesicles were prepared by a standard procedure with either PC/PG (7:3, w/w) or PC/cholesterol (8:1, w/w) as described previously. Briefly, the desired mixtures of lipids were dissolved in a chloroform/methanol mixture (2:1, v/v), dried under nitrogen and then lyophilized for 24 h to remove traces of organic solvent. Dry lipid films were suspended in 10 mM HEPES buffer containing 150 mM NaCl (pH 7.4) by vortex mixing. After five freeze-thawing cycles, the suspension was extruded 15 times through double polycarbonate membranes with 0.1 μm diameter pores on an Avanti mini-extruder apparatus. The lipid concentration was determined by phosphorus analysis as previously reported.
(§1) Fluorescence emission spectra of peptide Trp residues were monitored by a Shimadzu RF-5301 spectrofluorometer. The excitation of wavelength was set as 280 nm and the emission spectra of each peptide, with or without lipid vesicles, were recorded between 300 and 450 nm. Thus three curves were recorded for each peptide, in HEPES buffer or with either PC/PG vesicles or PC/cholesterol vesicles. The blue shift of Trp residues in vesicles were referred to in buffer condition. The final concentrations of peptide and lipid were 2 μM and 100 μM (1/50), respectively.

P. aeruginosa ATCC27853 = assay type: cell-based; conditions: ATCC27853, 24 h
Procedure: (§2) Minimal inhibitory concentrations (MIC) were determined using a broth dilution method. Briefly, bacteria were grown overnight at 37 °C in Mueller–Hinton (MH) Broth, diluted in the same medium and transferred into 96-well microtiter plates (90 μL/well). Peptides were serially diluted using 0.2% bovine serum albumin containing 0.01% acetic acid and added to the microtiter plates in a volume of 10 μL per well to give a final concentration of 5 × 10^5 CFU/mL. MICs were defined as the lowest peptide concentration that inhibited bacterial growth after incubation for 24 h at 37 °C.

P. aeruginosa H188 = assay type: cell-based; conditions: H188, 24 h
Procedure: as §2

E. coli Clinical Isolate = assay type: cell-based; conditions: Clinical Isolate, 24 h
Procedure: as §2

E. coli ATCC25922 = assay type: cell-based; conditions: ATCC25922, 24 h
Procedure: as §2

[2] = CD spectroscopy, helicity in benign buffer and in 50% TFE; assay type: physicochemical; conditions: for [θ]222, mean residue molar ellipticity, benign / [θ]222, mean residue molar ellipticity, 50% TFE: CD at 222 nm, peptide 75 μM; for [θ]222, mean residue molar ellipticity, benign / [θ]222, mean residue molar ellipticity, 50% TFE / % helix, 50% TFE: 25 °C; for [θ]222, mean residue molar ellipticity, benign: KP buffer (100 mM KCl, 50 mM K2HPO4/KH2PO4, pH 7.0); for [θ]222, mean residue molar ellipticity, 50% TFE / % helix, 50% TFE: KP buffer diluted 1:1 (v/v) with TFE; for % helix, 50% TFE / % helix, benign: relative to the molar ellipticity of peptide V16E in 50% TFE; for % helix, benign: KP buffer pH 7.0, 25 °C
Procedure: The secondary structures of peptides were determined in benign buffer and in a hydrophobic environment (50% trifluoroethanol, TFE) to mimic the hydrophobic environment of the membrane. […] The principle of side chain interaction at the i to i + 3 and i to i + 4 positions has been used to promote α-helix stability, for example, the incorporation of Lys and Glu residues to stabilize electrostatic attractions. Thus, the helicity of peptide V16E in the presence of 50% TFE that presented the greatest value among all analogs should rely on the contribution of the electrostatic attraction of the side chain of K13 and E16, which stabilizes the helix. The relative helicity is 100% for peptide V16E in 50% TFE, showing the importance of the salt bridges of K13 and E16 to stabilize the helical structure. In general, subtle side-chain alterations by single amino acid substitutions made no significant changes on secondary structures both in aqueous and in hydrophobic environments (Table 2).
Circular dichroism spectra were measured with a 0.02 cm path length quartz cuvette on a Jasco J-810 spectropolarimeter (Jasco, Tokyo, Japan) at 25 °C. Data were collected from 250 to 190 nm at a sensitivity of 100 millidegrees, response time of 1 s, bandwidth of 1.0 nm and a scan speed of 100 nm/min. Peptides were measured at a concentration of 75 μM in a benign buffer (50 mM KH2PO4/K2HPO4, 100 mM KCl, pH 7) or the benign buffer mixed with 50% 2,2,2-trifluoroethanol (TFE). The mean residue molar ellipticities were calculated using the equation [θ] = θ/10lcMn, where θ is the ellipticity in millidegrees, l is the optical path length of the cuvette in centimeters, cM is the peptide concentration in mole/liter and n is the number of residues in the peptide.

[3] = Tryptophan fluorescence in HEPES buffer; assay type: physicochemical; conditions: peptide 2 μM, excitation 280 nm
From the text: Upon peptide diffusion into the cytoplasmic membrane, evidence of selective interaction between peptides with bacterial versus mammalian cytoplasmic membrane was illustrated by the binding events of the peptides to anionic or zwitterionic lipid vesicles. The repositioning of the tryptophan indole group in an environment of reduced polarity upon membrane binding results in a blue shift in the fluorescence […] maximum coupled with an enhancement of emission intensity. Lipid/peptide (L/P) ratios were maintained high enough at low peptide concentration (2 μM) in order to mimic the initial steps of peptide-membrane binding. The spectra were recorded as shown in Supplementary Figure S1. […] The significant blue shifts of Δλmax (17 to 23 nm) for all peptides upon exposure to PC/PG vesicles indicated a membrane partition state of Trp in negatively charged vesicles containing 30% anionic lipids (PG).
as §1

[4] = Analytical RP-HPLC retention time as a measure of peptide hydrophobicity; assay type: physicochemical; conditions: RP-HPLC at 25 °C, Zorbax 300 SB-C8 column, linear AB gradient, A 0.1% aqueous TFA, B 0.1% TFA in acetonitrile, 1 mL/min, detection at 210 nm
Procedure: Among substitutions, the retention times ranged from 32.2 min (peptide V16K) to 40.4 min (peptide V16L), which reflect the pure effects of single amino acid substitutions. Thus, the retention times of peptides reflect the relative hydrophobicity of side chains. Consistent with previous studies, the hydrophobicity of peptide analogs was generally in the following order: Lys < Gly < Ser < Ala < Val < Leu. Glu-substituted peptide was an exception, as it contains a negatively-charged side chain and this should decrease the hydrophobicity of the peptide dramatically.
Peptides were analyzed on a Shimadzu LC-20A HPLC using a Zorbax 300 SB-C8 column (150 ° 4.6 mm i.d., 5 μm particle size, 300 Å pore size) from Agilent Technologies using a linear AB gradient and a flow rate of 1 mL/min, where solvents A and B were as described above. Absorbance signals of peptides were detected at 210 nm.

E. coli DH5α = test: MIC by broth dilution; assay type: cell-based; conditions: MH broth, 5 × 10^5 CFU/mL, 24 h at 37 °C
Procedure: as §2

[5] = PC/PG (7:3, w/w) vesicles versus HEPES buffer, lipid:peptide 50:1, peptide 2 μM
[6] = PC/PG (7:3, w/w) vesicles, lipid and peptide in a molar ratio of 50:1, peptide 2 μM, lipid 100 μM
[7] = PC/cholesterol (8:1, w/w) vesicles versus HEPES buffer, peptide 2 μM, lipid 100 μM
[8] = PC/cholesterol (8:1, w/w) vesicles, peptide 2 μM, lipid 100 μM

Row | Substance | Blue shift in emission maximum [1, 5] [nm] | Tryptophan fluorescence emission maximum [1, 6] [nm] | Blue shift in emission maximum [1, 7] [nm] | Tryptophan fluorescence emission maximum [1, 8] [nm] | MIC (P. aeruginosa ATCC27853) [µg/mL] | MIC (P. aeruginosa H188) [µg/mL] | MIC (E. coli Clinical Isolate) [µg/mL] | MIC (E. coli ATCC25922) [µg/mL] | [θ]222, mean residue molar ellipticity, benign [2] | [θ]222, mean residue molar ellipticity, 50% TFE [2] | % helix, 50% TFE [2] [%] | % helix, benign [2] [%] | Tryptophan fluorescence emission maximum [3] [nm] | tR, retention time during RP-HPLC (relative hydrophobicity) [4] [min] | MIC (E. coli DH5α) [µg/mL]
1 | Ac-KWKSFLKTFKSAKKTSLHTALKAISS-NH2 [Peptide V16S] | 22 | 328 | 1 | 349 | 32 | 4 | 16 | 8 | −1,760 degree·cm^2·dmol^−^1 | −28,949 degree·cm^2·dmol^−^1 | 96.3 | 5.9 | 350 | 34.3 | 8
2 | Ac-KWKSFLKTFKSAKKTGLHTALKAISS-NH2 [Peptide V16G] | 21 | 329 | 1 | 349 | 32 | 8 | 16 | 8 | −2,839 degree·cm^2·dmol^−^1 | −27,857 degree·cm^2·dmol^−^1 | 92.7 | 9.4 | 350 | 33.6 | 8
3 | Ac-KWKSFLKTFKSAKKTLLHTALKAISS-NH2 [Peptide V16L] | 23 | 326 | 2 | 348 | 2 | 2 | 1 | 1 | −3,595 degree·cm^2·dmol^−^1 | −29,803 degree·cm^2·dmol^−^1 | 99.1 | 12.0 | 350 | 40.4 | 4
4 | Ac-KWKSFLKTFKSAKKTALHTALKAISS-NH2 [Peptide V16A] | 22 | 328 | 1 | 349 | 4 | 4 | 1 | 2 | −3,057 degree·cm^2·dmol^−^1 | −28,769 degree·cm^2·dmol^−^1 | 95.7 | 10.2 | 350 | 36.6 | 4
5 | Ac-KWKSFLKTFKSAKKTELHTALKAISS-NH2 [Peptide V16E] | 17 | 333 | 1 | 349 | 125 | 64 | 125 | 16 | −3,465 degree·cm^2·dmol^−^1 | −30,063 degree·cm^2·dmol^−^1 | 100 | 11.5 | 350 | 34.6 | 64
